# Values quoted from earlier work, collected in the CATMoS acute toxicity set (Mansouri et al. 2021).
# Where “and” joins values, the source holds several entries; their conditions need not be identical. Identical values can stand only once.
# Experiment: rat acute oral toxicity
# Conditions: in vivo
row,SMILES,LD50
1,COP(=O)(OC)OC(=CCl)c1cc(Cl)ccc1Cl,3790 mg/kg
2,COC(=O)c1cc(C(=O)OC)cc([N+](=O)[O-])c1,10000 mg/kg
3,CCC(C(=O)N1CCCC1C)(c1ccccc1)c1ccccc1 (centres undefined),326 mg/kg
4,O=C(O)CCCCC(=O)O,7900 mg/kg and 10000 mg/kg
5,CN(C)CCCN1c2ccccc2Sc2cccnc21,610 mg/kg
6,CCOCCC(=O)O,4800 mg/kg
7,CCCCC(C)(C)O[Si](OC(C)(C)CCCC)(OC(C)(C)CCCC)OC(C)(C)CCCC,60300 mg/kg
8,Cc1ccc(C(N)=O)cc1N,1730 mg/kg
9,CC(C)C(NC(=O)COc1ccc(Cl)cc1Cl)C(=O)O (centres undefined),750 mg/kg
10,Nc1ccc(F)cc1,417 mg/kg
11,CC1(COCCOCC2(C)CO2)CO1 (centres undefined),7460 mg/kg
12,CSC(C)=NOC(=O)N(C)SSN(C)C(=O)ON=C(C)SC,190 mg/kg
13,c1ccc(COCc2ccccc2)cc1,2500 mg/kg
14,O=C[C@H](O)[C@@H](O)[C@H](O)[C@H](O)CO,25800 mg/kg
15,CCN1CC(CCN2CCOCC2)C(c2ccccc2)(c2ccccc2)C1=O (centres undefined),261 mg/kg
16,COc1ccc(O)c(C(N)=O)c1,1900 mg/kg
17,CCOC(=O)Cc1ccc(-c2ccccc2)cc1,385 mg/kg
18,CCCCNC(=S)N(CCCC)CCCC,3000 mg/kg
19,Nc1ccc2[nH]c3ccccc3c2c1,1520 mg/kg
20,CCCCCCOC(=O)Oc1ccccc1C(=O)O,3450 mg/kg
21,CC(C)(Oc1ccc(Cl)cc1)C(=O)O,897 mg/kg
22,CCCCOC(=O)C1CC1OCCCC (centres undefined),24 mg/kg
23,O=C(O)c1cc(Oc2ccc(C(F)(F)F)cc2Cl)ccc1[N+](=O)[O-],1370 mg/kg
24,CCNC1=Nc2ccc(Cl)cc2C(C)(c2ccccc2)O1 (centres undefined),1500 mg/kg
25,CCc1cc(S(=O)(=O)O)c2cc(C(C)C)cccc1-2,1100 mg/kg
26,CCC1(c2ccccc2)C(=O)N=C(O)NC1=O (centres undefined),150 mg/kg
27,CCCCc1c(OC(=O)C23CC4CC(CC(C4)C2)C3)n(-c2ccccc2)n(-c2ccccc2)c1=O,1700 mg/kg

row,SMILES,LD50
1,CC(CN1c2ccccc2Sc2cccnc21)N(C)C (centres undefined),1220 mg/kg
2,CNC=O,4000 mg/kg
3,CCCCCCCCCCCCNC(N)=S,1000 mg/kg
4,CC1(C)COC(c2ccccc2)CN1 (centres undefined),450 mg/kg and 480 mg/kg
5,O=[N+]([O-])c1ccc(Cl)cc1C(F)(F)F,554 mg/kg
6,CC(C)Cc1ccc2ccccc2n1,1020 mg/kg
7,CCOP(=S)(OCC)SCSCSP(=S)(OCC)OCC,8.5 mg/kg
8,CC1(C)CC(=O)CC(C)(C)N1[O],1460 mg/kg
9,FC(F)(F)c1nc2c(Br)cccc2[nH]1,28 mg/kg
10,CN(C(=O)c1ccc(N)cc1)C1CCN(C2CCCCC2)C1 (centres undefined),422 mg/kg
11,CCCCOCCOC(=O)c1ccccc1C(=O)OCCOCCCC,8380 mg/kg
12,CCCCCCc1ccccc1O,1300 mg/kg
13,CCCCCCOCC(O)COc1ccccc1C(=O)O (centres undefined),2150 mg/kg
14,BrC1(Br)C2CCC1CC2,210 mg/kg
15,CC1(C)COC1=O,1470 mg/kg
16,Fc1cc(Cl)c2nc(C(F)(F)F)[nH]c2c1,1.98 mg/kg
17,O=C1CC(=O)N(c2ccccc2)N1c1ccccc1,1000 mg/kg
18,CN(C)CCN,1140 mg/kg
19,FC(F)C(F)(F)OCC(Cn1cncn1)c1ccc(Cl)cc1Cl (centres undefined),1030 mg/kg
20,O=S(=O)(SC(Cl)(Cl)Cl)C(Cl)Cl,3620 mg/kg
21,NCCCCN,463 mg/kg
22,C=CCN(C1=NCCN1)c1c(Cl)cccc1Cl,500 mg/kg and 233 mg/kg
23,CN1C(=O)C2C3C=C(C(O)(c4ccccc4)c4ccccn4)C(C3=C(c3ccccc3)c3ccccn3)C2C1=O (centres undefined),12 mg/kg
24,Nc1ccc(OP(=O)(Oc2ccc(N)cc2)Oc2ccc(N)cc2)cc1,138 mg/kg
25,CCCCCCC(C)P(=O)(C(C)CCCCCC)C(C)CCCCCC (centres undefined),7270 mg/kg
26,CCCCCCCCC[N+]1(C)[C@H]2CC(OC(=O)C(CO)c3ccccc3)C[C@H]1[C@H]1O[C@H]12 (some centres undefined),1300 mg/kg
27,COC(=O)c1ccccc1OC,3800 mg/kg
